Measured values taken from paper PMC10012260 (ACS Infectious Diseases, 2023).
Values joined by “and” are separate entries in the source; they are usually repeats but may differ in a detail not shown here. Equal values may be shown once. Read-outs that look alike come from different tables or passages of the source.

Legend:
NDV La Sota [1] = experiment: microbe, parasite or virus in culture; type: cell-based, Newcastle disease virus; conditions: avian paramyxovirus 1, Vero, 48 h, read-out: Inhibition of viral release (IC50, μM)
NDV La Sota [2] = experiment: microbe, parasite or virus in culture; type: cell-based, Newcastle disease virus; conditions: for IC50: avian paramyxovirus 1, Vero, 48 h, read-out: plaque reduction assay (IC50, μM)
NDV La Sota [3] = experiment: microbe, parasite or virus in culture; type: cell-based, Newcastle disease virus; conditions: avian paramyxovirus 1, Vero, 24 h, read-out: viral yield reduction assay 24 h (IC50, μM)
in vitro = conditions: African green monkey
NDV La Sota [4] = experiment: microbe, parasite or virus in culture; type: cell-based, Newcastle disease virus; conditions: avian paramyxovirus 1, Vero, read-out: Inhibition of viral binding (IC50, μM)
[5] = target: NDV-HN of three NDV strains (two NDV La Sota and the velogenic strain APMV-1/chicken/Egypt/13VIR-5009-2/2013) (Newcastle disease virus, UniProt P35743); experiment: biochemical
Chain of NDV-HN of three NDV strains (two NDV La Sota and the velogenic strain APMV-1/chicken/Egypt/13VIR-5009-2/2013) (P35743 whole entry, looked up): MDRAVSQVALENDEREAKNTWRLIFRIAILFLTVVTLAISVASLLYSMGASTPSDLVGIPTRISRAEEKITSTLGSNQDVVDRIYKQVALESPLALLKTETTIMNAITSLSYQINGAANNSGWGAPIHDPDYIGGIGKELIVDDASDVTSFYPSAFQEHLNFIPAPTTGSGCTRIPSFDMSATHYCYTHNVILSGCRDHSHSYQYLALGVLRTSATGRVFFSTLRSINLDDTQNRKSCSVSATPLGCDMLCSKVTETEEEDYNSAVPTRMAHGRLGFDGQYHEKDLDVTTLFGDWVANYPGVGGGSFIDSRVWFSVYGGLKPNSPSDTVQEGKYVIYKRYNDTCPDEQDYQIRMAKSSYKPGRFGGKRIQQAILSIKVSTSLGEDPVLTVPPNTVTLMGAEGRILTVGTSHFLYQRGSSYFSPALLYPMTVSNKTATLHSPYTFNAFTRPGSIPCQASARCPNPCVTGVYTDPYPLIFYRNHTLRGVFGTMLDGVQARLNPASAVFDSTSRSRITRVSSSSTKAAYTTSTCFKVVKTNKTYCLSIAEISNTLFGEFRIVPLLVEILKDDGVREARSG

hPIV3-HN = conditions: read-out: IC50 hPIV3-HN; cited from earlier work
La Sota Clone 30 NDV-HN = La Sota Clone 30 NDV-HN (Newcastle disease virus, UniProt P35743); type: biochemical
Chain of La Sota Clone 30 NDV-HN (P35743 whole entry, looked up): as above

SMILES	IC50 (NDV La Sota [1]) [µM]	selectivity index (CC50/IC50) (NDV La Sota [2])	IC50 (NDV La Sota [2]) [µM]	IC50 (NDV La Sota [3]) [µM]	CC50 (in vitro) [µM]	IC50 (NDV La Sota [4]) [µM]	IC50 [5] [µM]	IC50 (hPIV3-HN)	increase in potency versus methylsulfonamido derivative 14 (La Sota Clone 30 NDV-HN) [fold]	increase in inhibitory activity versus p-toluenesulfonamido 12 (La Sota Clone 30 NDV-HN) [fold]	times more active than FANA 5 (La Sota Clone 30 NDV-HN) [times]
CC(=O)N[C@H]1[C@H]([C@H](O)[C@H](O)CO)OC(C(=O)O)=C[C@@H]1O [Compound 1, N-acetyl-2,3-dehydro-2-deoxyneuraminic acid, reference compound]	15 ± 8	>96	26 ± 13	1.6 ± 0.6	> 2500	> 100	6.2 to 14				
CC(=O)N[C@H]1[C@H]([C@H](O)[C@H](O)CO)OC(C(=O)O)=C[C@@H]1N=C(N)N [Compound 2, Zanamivir, reference compound]	29 ± 10	>83	30 ± 7		> 2500	> 100	23 to 70				
CC(C)C(=O)N[C@H]1[C@H]([C@H](O)[C@H](O)CO)OC(C(=O)O)=C[C@@H]1N=[N+]=[N-] [Compound 4]								20 µM and 21.5 µM			
O=C(O)C1=C[C@H](O)[C@@H](NC(=O)C(F)(F)F)[C@H]([C@H](O)[C@H](O)CO)O1 [Compound 5, N-trifluoroacetyl-2,3-dehydro-2-deoxyneuraminic acid, reference compound]	7.7 ± 2.9	>714	3.5 ± 0.9	0.37 ± 0.08	> 2500	> 100	6.2 to 14				
[N-]=[N+]=N[C@H]1C=C(C(=O)O)O[C@@H]([C@H](O)[C@H](O)CO)[C@@H]1NC(=O)C(F)(F)F [Compound 9]	0.47		0.17 ± 0.06	0.04 ± 0.01	> 2500	23	~0.03				
[N-]=[N+]=N[C@H]1C=C(C(=O)O)O[C@@H]([C@H](O)[C@H](O)CO)[C@@H]1NC(=O)C(F)(F)C(F)(F)C(F)(F)F [Compound 10]	0.09	>41,667	0.06 ± 0.02	0.04 ± 0.01	> 2500	4	~0.03				
O=C(O)C1=C[C@H](NS(=O)(=O)c2ccccc2)[C@@H](NC(=O)C(F)(F)F)[C@H]([C@H](O)[C@H](O)CO)O1 [Compound 19, 2,6-Anhydro-4-(phenylsulfonamido)-3,4,5-trideoxy-5-(2,2,2-trifluoroacetamido)-D-glycero-D-galacto-non-2-enoic Acid]									10		
Cc1ccc(C(=O)N[C@H]2C=C(C(=O)O)O[C@@H]([C@H](O)[C@H](O)CO)[C@@H]2NC(=O)C(F)(F)F)cc1 [Compound 23, 2,6-Anhydro-4-(4-methylbenzamido)-3,4,5-trideoxy-5-(2,2,2-trifluoroacetamido)-D-glycero-D-galacto-non-2-enoic Acid]	0.13		0.79 ± 0.57	0.05 ± 0.02	> 2500	24	≤ 0.2			3	40
O=C(O)C1=C[C@H](NC(=O)C(F)(F)F)[C@@H](NC(=O)C(F)(F)F)[C@H]([C@H](O)[C@H](O)CO)O1 [Compound 24, 2,6-Anhydro-3,4,5-trideoxy-4,5-di-(2,2,2-trifluoroacetamido)-D-glycero-D-galacto-non-2-enoic Acid]	0.17		0.08 ± 0.01	0.03 ± 0.01	> 2500	15	≤ 0.2				
